Values quoted from earlier work as cited in patent US9932302B1, “N-phenyl and N-benzyl enaminones and methods for using same” (University of Maryland Eastern Shore, priority 2013, dated 2018).

How the values were obtained:
Conditions in all cases: pre-clinical pharmacological profile
6 Hz psychomotor seizure = system: 6 Hz psychomotor seizure
[1] = system: maximal electroshock seizure (MES)
[2] = system: subcutaneous Metrazol (sc Met) induced seizure

| SMILES | 6 Hz activity profile of current AED (6 Hz psychomotor seizure) | MES activity profile of current AED [1] | scPTZ activity profile of current AED [2] |
| --- | --- | --- | --- |
| CC[C@@H](C(N)=O)N1CCCC1=O [levetiracetam] | active |  |  |
| O=C1NC(=O)C(c2ccccc2)(c2ccccc2)N1 [phenytoin] |  | active | active |
